Entries after “also recorded” stand apart in the source; their conditions may differ.
Tests used:
Format in all cases: in vivo, guinea pig
[1] = tested on: cochlear vasculature; assay: Noise-induced cochlear vasoconstriction (120 dB, one hour); conditions: given intraperitoneally 1 hour before noise exposure
Experimental: (§1) The infusion rate was controlled by a syringe pump. Systemic infusions were achieved via a cannula inserted in the right jugular vein. Changes in cochlear blood flow (CBF) were measured with the fine probe of a laser Doppler flowmeter (LDF) placed on the bony surface of the cochlea. Arterial blood pressure (BP) and heart rate were monitored from a cannula in the right carotid artery. BP and CBF were continuously recorded, as was their ratio (CBF/BP) as a derived measure of cochlear vascular […] (VC). The results are shown if FIGS. 10-18.
Three guinea pigs were exposed to high intensity (120 dB) noise for one hour (6×10 min, red lines in top panel). BP, CBF, and VC measurements were made during 2-min off-noise periods. Over the course of the exposure, there was pronounced vasoconstriction (VC) and decrease in cochlear blood flow (CBF), while BP remained stable (mean±SD).
Noise exposure was as in FIG. 15. However, when the antioxidant glutathione-monoethyl ester (GSHE) was given intraperitoneally 1 hour before noise exposure, the effect of noise on CBF and VC was eliminated.

[2] = Noise-induced permanent ABR threshold shift; conditions: 10 days after 4 kHz octave band noise, 115 dB SPL, 5 hours; 2, 4, 8, 16, 20 kHz; drug i.p. 30 min before noise; versus 0.9% NaCl
Experimental: (§2) Each animal received a drug dose before either being noise-exposed for 5 hours or simply placed in the exposure chamber for 5 hours. Auditory brain stem responses (ABR) were measured 2 days before and 10 days after noise exposure or sham exposure. Immediately after the second ABR measurement, animals were sacrificed for histological examination or for measurement of 8-isoprostane.
(§3) Animals were assigned to one of 17 groups (see Table 3). Eight groups were used to assess the effects of these agents on noise-induced threshold (auditory brain stem response, ABR) sensitivity and hair cell damage (cytocochleogram). Nine groups were used to determine the effects on noise-induced lipid peroxidation. Groups were injected intraperitoneally with 5 ml/kg of 0.9% NaCl, 0.2 mg/ml (+)-MK-801, 0.2 mg/ml (−)-MK-801, 0.2 mg/ml L-NAME, 100 mg/ml NAC, or a mixture of 0.2 mg/ml (+)-MK-801 and 100 mg/ml NAC 30 min before being placed in the exposure chamber. Because of the high clearance of PD 174494, one group of animals received 5 ml/kg of 2 mg/ml PD 174494 intraperitoneally 30 min before and 2 hr into noise exposure. A control group received 5 ml/kg of 0.9% NaCl on the same time schedule.
Animals were anesthetized with xylazine (10 mg/kg) and ketamine (40 mg/kg) given intramuscularly. A differential active needle electrode was placed subcutaneously below the test ear and a reference electrode at the vertex. A ground electrode was positioned below the contralateral ear. The sound stimuli consisted of 15 ms tone bursts, with a rise-fall time of 1 ms at frequencies of 2, 4, 8, 16 and 20 kHz, and were generated using a Fordham Audio Generator (Model AG-298, Fordham Radio Supply, Hauppauge N.Y.). They were presented to the right external auditory meatus in a closed acoustic system through an ear bar connected to a transducer (Beyer DT-48, Beyer Dynamic, Farmingdale N.Y.). The sound intensity was varied by 5 dB intervals. One thousand twenty-four tone presentations given at the rate of 9 s^−1 were averaged using a microcomputer and custom software to obtain a waveform. Hearing threshold was defined by the consistent appearance of ABR peaks III or IV. Test/retest reliability was within 5 dB. After the second ABR measurement, the cochleae were harvested.
Animals were exposed to noise in a lighted and ventilated sound exposure chamber while having free access to food and water. The sound chamber was fitted with speakers driven by a noise generator and a power amplifier. Using a ½-inch Brūel and Kjaer condenser microphone and Fast Fourier Transform analyzer, sound levels were measured and calibrated at multiple locations within the sound chamber to ensure uniformity of the stimulus. The stimulus intensity varied by a maximum of 3 dB across measured sites within the exposure chamber. […]

[3] = tested on: 8-isoprostane; assay: Cochlear 8-isoprostane (lipid peroxidation) by enzyme immunoassay after noise exposure; conditions: for 8-isoprostane level in the lateral wall / 8-isoprostane level in the modiolar core / 8-isoprostane level in the organ of Corti: after noise exposure, versus 0.9% NaCl
Experimental: as §2, §3
(§4) Animals were exposed to noise in a lighted and ventilated sound exposure chamber while having free access to food and water. The sound chamber was fitted with speakers driven by a noise generator and a power amplifier. Using a ½-inch Brūel and Kjaer condenser microphone and Fast Fourier Transform analyzer, sound levels were measured and calibrated at multiple locations within the sound chamber to ensure uniformity of the stimulus. The stimulus intensity varied by a maximum of 3 dB across measured sites within the exposure chamber. Animals were individually subjected to 4 kHz octave band noise, 115 dB SPL for 5 hours. Two hours after initiation, noise exposure was interrupted for 10 min to perform the second injection of 0.9% NaCl or PD 174494 in groups requiring it.
Animals were anesthetized with xylazine (10 mg/kg) and ketamine (40 mg/kg) given intramuscularly and decapitated. The auditory bullae were removed and the bony capsule of the cochlea was immediately opened.
Guinea pig cochleae were dissected in ice-cold Hanks' balanced salt solution (HBSS, Gibco Laboratories, Grand Island, N.Y.: 1.25 mM CaCl2, 5.55 mM glucose, 0.81 mM MgSO4, 0.44 mM KH2PO4, 136.9 mM NaCl, 0.34 mM Na2HPO4, 5.4 mM KCl, 5.0 mM sodium HEPES, with pH titrated to 7.4 (with NaOH) and osmolality adjusted to 300±1 mOsm with NaCl). Lateral wall tissues (spiral ligament and stria vascularis) and organ of Corti were removed from the modiolar core. The tissues were transferred to a 0.05% dl-dithiothreitol solution to prevent auto-oxidation of arachidonic acid and homogenized with a homogenizer for 30 sec. The homogenate was centrifuged at 7,200×g for 15 min at 4° C. Proteins were measured in aliquots of the supernatant by the Bradford method (Bradford, Anal. Biochem. 72: 248 [1976]). Butyl hydroxytoluene was added to the supernatant to a concentration of 0.1%, followed by 200 μl of ethanol and another homogenization. The homogenate was centrifuged at 1,500×g for 10 min at 4° C. Two hundred μl of 15% KOH was added to the supernatant for determination of the levels of free and esterified 8-isoprostane, and the mixture was incubated at 40° C. for 1 hr. The solution was then acidified to pH 3 with HCl. The samples were applied to octadecylsilyl silica columns pre-activated with methanol and distilled water and subsequently washed with distilled water and then with hexane. 8-isoprostane was eluted with ethyl acetate containing 1% methanol, and the eluate was evaporated under N2 to dryness. The samples were dissolved in 30 μl of acetone and spotted on silica gel G thin layer chromatography plates, which were developed in chloroform/methanol/acetic acid/water (80:18:1:0.8, v/v). 8-isoprostane was located from the Rf of standards run on the same plate and visualized by spraying with 3.5% phosphomolybdic acid. […]

[4] = tested on: outer and inner hair cells; assay: Hair cell count (cytocochleogram) after noise exposure; conditions: for inner hair cell loss / outer hair cell loss: region 9-13 mm from apex, 10 days after noise, versus 0.9% NaCl; for hair cell loss: hair cell type not specified
Experimental: as §2, §3, §4
Animals were sacrificed under deep anesthesia. The bullae were quickly removed and transferred into 4% paraformaldehyde in 0.01 M phosphate-buffered saline (PBS)(pH 7.4). The bone near the apex, round window, and oval window was opened, followed by two gentle local perfusions from the apex with 1 ml of 4% paraformaldehyde each. The tissue was kept in the fixative for 12 hr. After removal of the bony capsule and the lateral wall tissues, the modiolar core including the organ of Corti was removed from the temporal bone. Following permeabilization with 0.3% Triton X-100 for 10 min, whole-mounts of the organ of Corti were stained for actin with fluorescent phalloidin for 30 min to outline hair cells and their stereocilia for a quantitative assessment (Raphael and Altschuler, Hear. Res., 31:173 [1991]). Slide preparations were observed under fluorescence microscopy and missing (as shown by scar formation) and present (as shown by intact stereocilia) hair cells in the sensory epithelium were counted from the apex to the base in 0.19 mm segments. Percent hair cell loss was calculated for each segment. A group mean cytocochleogram was created by averaging the loss at each segment. Differences were evaluated for statistical significance on the basis of data from the region 9-13 mm from apex, the region of greatest damage in a previous study (Ohinata et al., Hear. Res. 146: 28 [2000]).

[5] = tested on: cochlear vasculature; assay: Cochlear blood flow (laser Doppler), blood pressure and vascular conductance after 8-iso-PGF2a / SQ29,548 infusion; conditions: for blood pressure (BP) response / cochlear blood flow (CBF) response: after administration, dose series; for cochlear vascular conductance (VC = CBF/BP) response: intravenous infusion
Experimental: as §1

[6] = AICA infusion of ~25 μg/kg over 2 min, minimal BP change

Compound	noise-induced ABR threshold shift [2]	8-isoprostane level in the lateral wall [3]	8-isoprostane level in the modiolar core [3]	8-isoprostane level in the organ of Corti [3]	inner hair cell loss [4]	outer hair cell loss [4]	hair cell loss [4]	further results
CCOC(=O)CNC(=O)[C@H](CS)NC(=O)CC[C@H](N)C(=O)O [GSHE, glutathione-monoethyl ester]	–	–	–	–	–	–	–	effect of noise on CBF [1]: eliminated; effect of noise on VC [1]: eliminated
Cc1ccc(CC2(O)CCN(CCOc3ccc(O)cc3)CC2)cc1 [PD 174494]	significantly attenuated noise-induced hearing loss at 2, 4 and 8 kHz; also recorded: decreased threshold shift	did not influence	suppressed	suppressed; also recorded: less with PD 174494 than with the other treatments	protected only inner hair cells	protected only inner hair cells	–	effect on 8-isoprostane formation relative to that of (+)-MK-801 ([3]; organ of Corti and modiolar core): about half; inner hair cell loss ([4]; listed as PD 174474): some protective effect
(+)-MK-801	significantly attenuated threshold shifts at all frequencies; also recorded: decreased threshold shift	did not influence	attenuated	attenuated	attenuated; also recorded: some protective effect	attenuated	successful in preventing hair cell loss	–
O=C(O)CCC/C=C\C[C@@H]1[C@H](CNNC(=O)Nc2ccccc2)[C@H]2CC[C@@H]1O2 [SQ29,548]	–	–	–	–	–	–	–	decrease in cochlear vascular constriction ([5]; 35 mg/kg 8-iso-PGF2a i.v. before and after AICA infusion of antagonist, two subjects): 12%; effect on vasoconstriction (VC) by isoPGF2a ([5]; addition of the antagonist): blocked; maximum mean VC value during SQ29,548 infusion, less than after the initial 8-iso-PGF2a infusion ([5]; continuous AICA infusion of antagonist, 8-iso-PGF2a about 75-95 mg/kg i.v. over 20 sec, three subjects): 8-10%
CCCCC[C@H](O)/C=C/[C@@H]1[C@H](C/C=C\CCCC(=O)O)[C@@H](O)C[C@H]1O [8-iso-PGF2a, 8-iso-prostaglandin F2a]	–	–	–	–	–	–	–	BP during AICA infusion ([5]; 2 min AICA infusion, some of the subjects): no significant elevation in BP; decrease in CBF [5, 6]: 25-30%; decrease in VC [5, 6]: 25-30%; blood pressure (BP) response [5]: increasing response; cochlear blood flow (CBF) response [5]: increasing response; blood pressure (BP) response ([5]; listed as 8-isoPGF2a): rapid and concentration-dependent change; cochlear blood flow (CBF) response ([5]; listed as 8-isoPGF2a): rapid and concentration-dependent change; cochlear vascular conductance (VC = CBF/BP) response [5]: dose-dependent constriction of the cochlear vasculature; also recorded: Strong concentration-dependent decrease; also recorded: clear dose-dependent decrease; cochlear vascular conductance (VC = CBF/BP) response ([5]; listed as 8-isoPGF2a): strong dose-dependent decrease; dose at which the VC decrease approaches saturation ([5]; intravenous, mean maximum VC response 1.5-2.5 min after infusion initiation): approximately 30 mg/kg; BP, CBF and VC response to AICA infusion ([5]; sequential 1.25 min infusions via AICA, or 2 min AICA infusion): no significant response to the lower two doses; also recorded: dose-dependent constriction of the cochlear vasculature; also recorded: local vasoconstrictive response
COC(=O)[C@@H](N)CCCNC(=N)N[N+](=O)[O-] [L-NAME, L-N^ω-Nitroarginine methyl ester]	significantly attenuated at 2 kHz; also recorded: increased at 20 kHz; also recorded: not threshold shift	suppressed; also recorded: decreased 8-isoprostane level	suppressed	decreased 8-isoprostane level in the organ of Corti	increased	not affected	had no effect	–
(−)-MK-801	–	did not affect	did not affect	did not affect	not affected	decreased	–	–
CC(=O)N[C@@H](CS)C(=O)O [NAC, N-acetylcysteine]	significantly attenuated threshold shifts at all frequencies	attenuated	attenuated	attenuated	attenuated; also recorded: some protective effect	attenuated	successful in preventing hair cell loss	–
